Laboratory results as given in patent US8952024B2, “Herbicidal pyrimidone derivatives” (E I du Pont de Nemours and Company, priority 2009, dated 2015).

What was measured:
Type in all cases: in vivo
[1] = test system: barnyardgrass (Echinochloa crus-galli); test: Test A pre-/postemergence plant response
Outline: (§1)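 Each species was treated preemergence via directed soil spray and postemergence at the one- to two-leaf stage, with compounds formulated in a non-phytotoxic solvent plus surfactant. Visual injury relative to untreated controls was rated after about ten days on a 0–100 scale.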

corn (Zea mays) = test: Test A pre-/postemergence plant response
Outline: as §1

[2] = test system: giant foxtail (Setaria faberii); test: Test A pre-/postemergence plant response
Outline: as §1

[3] = test system: large crabgrass (Digitaria sanguinalis); test: Test A pre-/postemergence plant response
Outline: as §1

[4] = test system: morningglory (Ipomoea spp.); test: Test A pre-/postemergence plant response
Outline: as §1

[5] = test system: pigweed (Amaranthus retroflexus); test: Test A pre-/postemergence plant response
Outline: as §1

[6] = test system: velvetleaf (Abutilon theophrasti); test: Test A pre-/postemergence plant response
Outline: as §1

[7] = test system: wheat (Triticum aestivum); test: Test A pre-/postemergence plant response
Outline: as §1

[8] = test system: winter barley (Hordeum vulgare); test: Test B postemergence plant response; settings: for Barley plant response rating (0 to 100 scale): 62 g ai/ha, 0 is no effect, 13 to 15 days
Outline: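 Visual ratings from 0 (no effect) to 100 (complete control), made against controls 13–15 days after treatment, kept in a greenhouse. Compounds were applied postemergence to potted plants at the 1- to 4-leaf stage (2–18 cm).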

[9] = test system: barnyardgrass (Echinochloa crus-galli); test: Test B flooded paddy test; settings: for Plant response rating, Flood, Barnyardgrass: 250 g ai/ha, flooded paddy test, visual rating on 0 to 100 scale (0 no effect, 100 complete control) after 13 to 15 days; for Plant response rating, Barnyardgrass: Flood (flooded paddy test), 13 to 15 days
Outline: (§2)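 Ratings are visual, 0–100 (100 = complete control), taken versus untreated controls 13 to 15 days after treatment in the greenhouse. Compound went straight into paddy water held 3 cm above soil, applied to 2-leaf-stage plants of four species.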

[10] = test system: ducksalad (Heteranthera limosa); test: Test B flooded paddy test; settings: for Plant response rating, Flood, Ducksalad: 250 g ai/ha, flooded paddy test, visual rating on 0 to 100 scale (0 no effect, 100 complete control) after 13 to 15 days; for Plant response rating, Ducksalad: Flood (flooded paddy test), 13 to 15 days
Outline: as §2

rice (Oryza sativa) = test: Test B flooded paddy test; settings: for Plant response rating, Flood, Rice: 250 g ai/ha, flooded paddy test, visual rating on 0 to 100 scale (0 no effect, 100 complete control) after 13 to 15 days; for Plant response rating, Rice: Flood (flooded paddy test), 13 to 15 days
Outline: as §2

[11] = test system: umbrella sedge (Cyperus difformis); test: Test B flooded paddy test; settings: for Plant response rating, Flood, Sedge, Umbrella: 250 g ai/ha, flooded paddy test, visual rating on 0 to 100 scale (0 no effect, 100 complete control) after 13 to 15 days; for Plant response rating, Sedge, Umbrella: Flood (flooded paddy test), 13 to 15 days
Outline: as §2

[12] = Postemergence, 125 g ai/ha, 0 to 100 scale where 0 is no effect and 100 is complete control
[13] = Postemergence, 500 g ai/ha, 0 to 100 scale, 0 = no effect, 100 = complete control, approx. ten days
[14] = Preemergence, 125 g ai/ha, 0 to 100 scale, 0 = no effect, 100 = complete control
[15] = Preemergence, 500 g ai/ha, visual injury, 0 to 100 scale (0 no effect, 100 complete control), approx. ten days
[16] = 31 g ai/ha, postemergence, scale 0 to 100, 0 is no effect, 100 is complete control
[17] = postemergence, 100 is complete control
[18] = Postemergence, 125 g ai/ha, scale 0 to 100 (0 no effect, 100 complete control)
[19] = Postemergence, 250 g ai/ha, scale 0 to 100 (0 no effect, 100 complete control)
[20] = 62 g ai/ha, scale of 0 to 100 where 0 is no effect and 100 is complete control
[21] = 125 g ai/ha, scale 0 to 100, 0 is no effect, 100 is complete control
[22] = Flood, 31 g ai/ha, scale 0 to 100 (0 no effect, 100 complete control)

## COCC(C)n1c(-c2ccccc2)ncc(C(=O)C2=C(O)CCCC2=O)c1=O (stereo not drawn) [Compound 107]
[1]; [12]
  Plant response rating, Barnyardgrass: 90
[1]; [13]
  Plant response rating, Barnyardgrass: 90
[1]; [14]
  Plant response rating, Barnyardgrass: 40
[1]; [15]
  Plant response rating, Barnyardgrass: 90
Corn (Zea mays); [12]
  Plant response rating, Corn: 0
Corn (Zea mays); [13]
  Plant response rating, Corn: 50
Corn (Zea mays); [14]
  Plant response rating, Corn: 20
[2]; [12]
  Plant response rating, Foxtail, Giant: 70
[2]; [13]
  Plant response rating, Foxtail, Giant: 90
[2]; [14]
  Plant response rating, Foxtail, Giant: 60
[2]; [15]
  Plant response rating, Foxtail, Giant: 90
[3]; [12]
  Plant response rating, Crabgrass, Large: 80
[3]; [13]
  Plant response rating, Crabgrass, Large: 90
[3]; [14]
  Plant response rating, Crabgrass, Large: 90
[3]; [15]
  Plant response rating, Crabgrass, Large: 100
[4]; [12]
  Plant response rating, Morningglory: 100
[4]; [13]
  Plant response rating, Morningglory: 100
[4]; [14]
  Plant response rating, Morningglory: 70
[4]; [15]
  Plant response rating, Morningglory: 100
[5]; [12]
  Plant response rating, Pigweed: 100
[5]; [13]
  Plant response rating, Pigweed: 100
[5]; [14]
  Plant response rating, Pigweed: 100
[5]; [15]
  Plant response rating, Pigweed: 100
[6]; [12]
  Plant response rating, Velvetleaf: 100
[6]; [13]
  Plant response rating, Velvetleaf: 100
[6]; [14]
  Plant response rating, Velvetleaf: 100
[6]; [15]
  Plant response rating, Velvetleaf: 100
[7]; [12]
  Plant response rating, Wheat: 0
[7]; [13]
  Plant response rating, Wheat: 10
[7]; [14]
  Plant response rating, Wheat: 0
[7]; [15]
  Plant response rating, Wheat: 0
[8]; [16]
  Plant response rating, Barley: 0
[8]; [17]
  Barley plant response rating (0 to 100 scale): 5
[8]; [18]
  Plant response rating, Barley: 25
[8]; [19]
  Plant response rating, Barley: 30
[9]
  Plant response rating, Flood, Barnyardgrass: 60
[9]; [20]
  Plant response rating, Barnyardgrass: 40
[10]
  Plant response rating, Flood, Ducksalad: 40
[10]; [20]
  Plant response rating, Ducksalad: 0
Rice (Oryza sativa)
  Plant response rating, Flood, Rice: 45
Rice (Oryza sativa); [20]
  Plant response rating, Rice: 20
[11]
  Plant response rating, Flood, Sedge, Umbrella: 85
[11]; [20]
  Plant response rating, Sedge, Umbrella: 60

## COCCn1c(-c2cccc(F)c2)ncc(C(=O)C2=C(O)CCCC2=O)c1=O [Compound 123]
[1]; [12]
  Plant response rating, Barnyardgrass: 80
[1]; [13]
  Plant response rating, Barnyardgrass: 90
[1]; [14]
  Plant response rating, Barnyardgrass: 50
[1]; [15]
  Plant response rating, Barnyardgrass: 100
Corn (Zea mays); [12]
  Plant response rating, Corn: 20
Corn (Zea mays); [13]
  Plant response rating, Corn: 70
Corn (Zea mays); [14]
  Plant response rating, Corn: 0
Corn (Zea mays); [15]
  Plant response rating, Corn: 30
[2]; [12]
  Plant response rating, Foxtail, Giant: 70
[2]; [13]
  Plant response rating, Foxtail, Giant: 80
[2]; [14]
  Plant response rating, Foxtail, Giant: 50
[2]; [15]
  Plant response rating, Foxtail, Giant: 100
[3]; [12]
  Plant response rating, Crabgrass, Large: 80
[3]; [13]
  Plant response rating, Crabgrass, Large: 90
[3]; [14]
  Plant response rating, Crabgrass, Large: 100
[3]; [15]
  Plant response rating, Crabgrass, Large: 100
[4]; [12]
  Plant response rating, Morningglory: 100
[4]; [13]
  Plant response rating, Morningglory: 100
[4]; [14]
  Plant response rating, Morningglory: 70
[5]; [12]
  Plant response rating, Pigweed: 100
[5]; [13]
  Plant response rating, Pigweed: 100
[5]; [14]
  Plant response rating, Pigweed: 90
[5]; [15]
  Plant response rating, Pigweed: 100
[6]; [12]
  Plant response rating, Velvetleaf: 100
[6]; [13]
  Plant response rating, Velvetleaf: 100
[6]; [14]
  Plant response rating, Velvetleaf: 70
[6]; [15]
  Plant response rating, Velvetleaf: 100
[7]; [12]
  Plant response rating, Wheat: 0
[7]; [13]
  Plant response rating, Wheat: 20
[7]; [14]
  Plant response rating, Wheat: 0
[7]; [15]
  Plant response rating, Wheat: 20
[8]; [17]
  Barley plant response rating (0 to 100 scale): 10
[8]; Postemergence, 31 g ai/ha, 0 to 100 scale (0 no effect, 100 complete control)
  Plant response rating, Barley: 5
[8]; [18]
  Plant response rating, Barley: 25
[8]; [19]
  Plant response rating, Barley: 50
[9]
  Plant response rating, Flood, Barnyardgrass: 70
[9]; [20]
  Plant response rating, Barnyardgrass: 40
[9]; [21]
  Plant response rating, Barnyardgrass: 55
[9]; [22]
  Barnyardgrass plant response rating: 30
[10]
  Plant response rating, Flood, Ducksalad: 95
[10]; [20]
  Plant response rating, Ducksalad: 80
[10]; [21]
  Plant response rating, Ducksalad: 90
[10]; [22]
  Ducksalad plant response rating: 30
Rice (Oryza sativa)
  Plant response rating, Flood, Rice: 40
Rice (Oryza sativa); [20]
  Plant response rating, Rice: 20
Rice (Oryza sativa); [21]
  Plant response rating, Rice: 30
Rice (Oryza sativa); [22]
  Rice plant response rating: 0
[11]
  Plant response rating, Flood, Sedge, Umbrella: 85
[11]; [20]
  Plant response rating, Sedge, Umbrella: 70
[11]; [21]
  Plant response rating, Sedge, Umbrella: 75
[11]; [22]
  Sedge, Umbrella plant response rating: 40

## CCCc1ncc(C(=O)C2=C(O)CCCC2=O)c(=O)n1-c1ccccc1C [Compound 73]
[1]; [12]
  Plant response rating, Barnyardgrass: 70
[1]; [13]
  Plant response rating, Barnyardgrass: 90
[1]; [14]
  Plant response rating, Barnyardgrass: 0
[1]; [15]
  Plant response rating, Barnyardgrass: 70
Corn (Zea mays); [12]
  Plant response rating, Corn: 30
Corn (Zea mays); [13]
  Plant response rating, Corn: 60
Corn (Zea mays); [14]
  Plant response rating, Corn: 0
Corn (Zea mays); [15]
  Plant response rating, Corn: 0
[2]; [12]
  Plant response rating, Foxtail, Giant: 80
[2]; [13]
  Plant response rating, Foxtail, Giant: 90
[2]; [14]
  Plant response rating, Foxtail, Giant: 50
[2]; [15]
  Plant response rating, Foxtail, Giant: 70
[3]; [12]
  Plant response rating, Crabgrass, Large: 90
[3]; [13]
  Plant response rating, Crabgrass, Large: 90
[3]; [14]
  Plant response rating, Crabgrass, Large: 70
[3]; [15]
  Plant response rating, Crabgrass, Large: 100
[4]; [12]
  Plant response rating, Morningglory: 100
[4]; [13]
  Plant response rating, Morningglory: 100
[4]; [14]
  Plant response rating, Morningglory: 10
[4]; [15]
  Plant response rating, Morningglory: 80
[5]; [12]
  Plant response rating, Pigweed: 100
[5]; [13]
  Plant response rating, Pigweed: 100
[5]; [14]
  Plant response rating, Pigweed: 100
[5]; [15]
  Plant response rating, Pigweed: 100
[6]; [12]
  Plant response rating, Velvetleaf: 100
[6]; [13]
  Plant response rating, Velvetleaf: 100
[6]; [14]
  Plant response rating, Velvetleaf: 80
[6]; [15]
  Plant response rating, Velvetleaf: 100
[7]; [12]
  Plant response rating, Wheat: 10
[7]; [13]
  Plant response rating, Wheat: 50
[7]; [14]
  Plant response rating, Wheat: 10
[7]; [15]
  Plant response rating, Wheat: 30
[8]; [16]
  Plant response rating, Barley: 0
[8]; [17]
  Barley plant response rating (0 to 100 scale): 0
[8]; Postemergence, 125 g ai/ha, visual rating after 13 to 15 days, scale 0 (no effect) to 100 (complete control)
  Plant response rating, Barley: 0
[8]; [19]
  Plant response rating, Barley: 10
[9]
  Plant response rating, Flood, Barnyardgrass: 0
[9]; [20]
  Plant response rating, Barnyardgrass: 0
[10]
  Plant response rating, Flood, Ducksalad: 0
[10]; [20]
  Plant response rating, Ducksalad: 0
Rice (Oryza sativa)
  Plant response rating, Flood, Rice: 0
Rice (Oryza sativa); [20]
  Plant response rating, Rice: 0
[11]
  Plant response rating, Flood, Sedge, Umbrella: 0
[11]; [20]
  Plant response rating, Sedge, Umbrella: 0
